The target of this assay is T1, recombinant guanylate cyclase reporter cell line (Rattus norvegicus, UniProt P19686+P20595).
T1 construct: expressed in transfected cells
T1 sequence (P20595 1-619): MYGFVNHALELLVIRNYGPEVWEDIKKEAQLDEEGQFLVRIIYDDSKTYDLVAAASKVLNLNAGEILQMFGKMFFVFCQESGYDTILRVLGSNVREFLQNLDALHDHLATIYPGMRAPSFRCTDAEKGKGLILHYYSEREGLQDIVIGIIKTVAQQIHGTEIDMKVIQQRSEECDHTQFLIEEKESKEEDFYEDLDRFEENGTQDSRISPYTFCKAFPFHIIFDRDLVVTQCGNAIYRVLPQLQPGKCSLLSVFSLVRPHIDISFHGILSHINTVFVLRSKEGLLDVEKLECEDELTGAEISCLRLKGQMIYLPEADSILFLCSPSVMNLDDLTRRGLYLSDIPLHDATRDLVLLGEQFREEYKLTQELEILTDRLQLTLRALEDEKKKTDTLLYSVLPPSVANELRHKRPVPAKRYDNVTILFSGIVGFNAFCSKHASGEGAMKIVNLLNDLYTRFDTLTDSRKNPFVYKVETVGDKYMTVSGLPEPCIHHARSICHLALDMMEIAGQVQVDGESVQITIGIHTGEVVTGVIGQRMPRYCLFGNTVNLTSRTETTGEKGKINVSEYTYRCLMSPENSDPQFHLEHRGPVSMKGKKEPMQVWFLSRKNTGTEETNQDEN
T1 sequence (P19686 1-690): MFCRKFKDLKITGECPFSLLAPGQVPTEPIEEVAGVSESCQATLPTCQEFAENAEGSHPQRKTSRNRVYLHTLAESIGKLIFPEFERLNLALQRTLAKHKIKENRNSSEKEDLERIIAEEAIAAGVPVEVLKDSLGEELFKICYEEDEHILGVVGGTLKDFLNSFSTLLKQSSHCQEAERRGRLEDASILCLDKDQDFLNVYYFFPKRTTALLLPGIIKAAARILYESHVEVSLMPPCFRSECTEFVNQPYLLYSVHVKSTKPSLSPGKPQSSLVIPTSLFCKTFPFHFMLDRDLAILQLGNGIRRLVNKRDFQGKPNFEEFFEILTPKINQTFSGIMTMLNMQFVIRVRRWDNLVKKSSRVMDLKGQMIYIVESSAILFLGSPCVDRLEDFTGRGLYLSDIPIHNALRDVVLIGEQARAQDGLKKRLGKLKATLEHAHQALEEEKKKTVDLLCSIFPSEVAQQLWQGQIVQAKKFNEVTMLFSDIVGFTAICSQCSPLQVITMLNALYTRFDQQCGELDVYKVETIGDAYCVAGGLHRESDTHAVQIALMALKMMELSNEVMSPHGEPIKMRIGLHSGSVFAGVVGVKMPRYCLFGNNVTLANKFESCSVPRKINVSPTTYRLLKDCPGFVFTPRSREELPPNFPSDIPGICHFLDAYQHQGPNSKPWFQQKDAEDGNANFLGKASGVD
Nature of the assay: B-2. Action on recombinant guanylate cyclase reporter cell line. As to conditions: MEC = minimal effective concentration; in some cases mean values from individual determinations. The class given is cell-based. The method, boiled down: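 Compounds are tested on whole cells carrying a guanylate cyclase reporter construct. The lowest concentration giving an effect is recorded as the MEC.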

Turning to `Cc1cc(OCc2c(F)cccc2F)c2nc(C)c(C(=O)NC3CCNCC3(F)F)n2c1` (racemic) [Example 299, rac-8-[(2,6-difluorobenzyl)oxy]-N-(3,3-difluoropiperidin-4-yl)-2,6-dimethylimidazo[1,2-a]pyridine-3-carboxamide], the MEC is 0.10 µM.
Take `CCCC(C)(N)CNC(=O)c1c(CC)nc2c(OCc3c(F)cccc3F)cc(C)cn12` (racemic) [Example 301, rac-N-(2-amino-2-methylpentyl)-8-[(2,6-difluorobenzyl)oxy]-2-ethyl-6-methylimidazo[1,2-a]pyridine-3-carboxamide]: the MEC was found to be 0.10 µM.
The value for `Cc1cc(OCc2c(F)cccc2F)c2nc(C)c(C(=O)NC3CCNC(C(F)(F)F)C3)n2c1` (racemic) [Example 302, rac-8-[(2,6-difluorobenzyl)oxy]-2,6-dimethyl-N-[2-(trifluoromethyl)piperidin-4-yl]imidazo[1,2-a]pyridine-3-carboxamide] was 0.10 µM.
In the case of `CCCC(C)(N)CNC(=O)c1c(C)nc2c(OCc3cccc(F)c3F)cc(C)cn12` (racemic) [Example 303, rac-N-(2-amino-2-methylpentyl)-8-[(2,3-difluorobenzyl)oxy]-2,6-dimethylimidazo[1,2-a]pyridine-3-carboxamide], the MEC is 0.20 µM.
Turning to `Cc1cc(OCc2c(F)cccc2F)c2nc(C)c(C(=O)NCC(C)(N)Cc3nc4ccccc4s3)n2c1` (racemic) [Example 310, rac-N-[2-amino-3-(1,3-benzothiazol-2-yl)-2-methylpropyl]-8-[(2,6-difluorobenzyl)oxy]-2,6-dimethylimidazo[1,2-a]pyridine-3-carboxamide], the MEC turned out to be 0.30 µM.
`CCCC(C)(N)CNC(=O)c1c(C)nc2c(OCc3c(F)c(F)cc(F)c3F)cc(C)cn12` (racemic) [Example 311, rac-N-(2-amino-2-methylpentyl)-2,6-dimethyl-8-[(2,3,5,6-tetrafluorobenzyl)oxy]imidazo[1,2-a]pyridine-3-carboxamide]: the MEC is 0.30 µM.
Consider `Cc1cc(OCc2c(F)cccc2F)c2nc(C)c(C(=O)NC3CNCC(F)(F)C3)n2c1` (racemic) [Example 312, rac-8-[(2,6-difluorobenzyl)oxy]-N-(5,5-difluoropiperidin-3-yl)-2,6-dimethylimidazo[1,2-a]pyridine-3-carboxamide], for which the MEC is 0.30 µM.
The value for `Cc1cc(OCc2c(F)cccc2F)c2nc(C)c(C(=O)NC3CCCCNC3)n2c1` (racemic) [Example 316, rac-N-(azepan-3-yl)-8-[(2,6-difluorobenzyl)oxy]-2,6-dimethylimidazo[1,2-a]pyridine-3-carboxamide] was 0.30 µM.
As for `CCCC(C)(N)CNC(=O)c1c(C)nc2c(OCc3cccc(C)c3F)cc(C)cn12` (racemic) [Example 317, rac-N-(2-amino-2-methylpentyl)-8-[(2-fluoro-3-methylbenzyl)oxy]-2,6-dimethylimidazo[1,2-a]pyridine-3-carboxamide], the MEC came to 0.30 µM.
`Cc1cc(OCc2c(F)cccc2F)c2nc(C)c(C(=O)NC3(C)CC3(C)N)n2c1` (racemic) [Example 320, rac-N-(2-amino-1,2-dimethylcyclopropyl)-8-[(2,6-difluorobenzyl)oxy]-2,6-dimethylimidazo[1,2-a]pyridine-3-carboxamide (Racemate)]: the MEC was determined as 0.30 µM.
As to `Cc1cc(OCc2c(F)cccc2F)c2nc(C)c(C(=O)NCC(C)(N)Cc3ncn(-c4cc(C)on4)n3)n2c1` (racemic) [Example 321, rac-N-{2-amino-2-methyl-3-[1-(5-methyl-1,2-oxazol-3-yl)-1H-1,2,4-triazol-3-yl]propyl}-8-[(2,6-difluorobenzyl)oxy]-2,6-dimethylimidazo[1,2-a]pyridine-3-carboxamide], the MEC was 0.30 µM.
On to `Cc1cc(OCc2c(F)cccc2F)c2nc(C)c(C(=O)NC3CC3N)n2c1` (racemic) [Example 330, rac-N-(2-aminocyclopropyl)-8-[(2,6-difluorobenzyl)oxy]-2,6-dimethylimidazo[1,2-a]pyridine-3-carboxamide], for which the MEC worked out at 0.30 µM.
The value for `Cc1cc(OCc2c(F)cccc2F)c2nc(C)c(C(=O)NC3CCC3(C)N)n2c1` (racemic) [Example 331, rac-N-(2-amino-2-methylcyclobutyl)-8-[(2,6-difluorobenzyl)oxy]-2,6-dimethylimidazo[1,2-a]pyridine-3-carboxamide] was 0.30 µM; that for `Cc1cc(OCc2c(F)cccc2F)c2nc(C)c(C(=O)NC3(C)CCC3(C)N)n2c1` (racemic) [Example 335, rac-N-[2-amino-1,2-dimethylcyclobutyl]-8-[(2,6-difluorobenzyl)oxy]-2,6-dimethylimidazo[1,2-a]pyridine-3-carboxamide] was 0.30 µM; that for `CCCC(C)(N)CNC(=O)c1c(C)nc2c(OCc3ccccc3)cc(C)cn12` (racemic) [Example 340, rac-N-(2-amino-2-methylpentyl)-8-(benzyloxy)-2,6-dimethylimidazo[1,2-a]pyridine-3-carboxamide] was 1.00 µM.
In the case of `Cc1cc(OCc2c(F)cccc2F)c2nc(C)c(C(=O)NC3C(N)C3(C)C)n2c1` (racemic) [Example 341, rac-N-(3-amino-2,2-dimethylcyclopropyl)-8-[(2,6-difluorobenzyl)oxy]-2,6-dimethylimidazo[1,2-a]pyridine-3-carboxamide (Racemate)], the MEC came to 0.30 µM.
Turning to `Cc1cc(OCc2c(F)cccc2F)c2nc(C)c(C(=O)NC3CCC4NCCC43)n2c1` (racemic) [Example 342, rac-8-[(2,6-Difluorobenzyl)oxy]-2,6-dimethyl-N-(octahydrocyclopenta[b]pyrrol-4-yl)imidazo[1,2-a]pyridine-3-carboxamide], the MEC was found to be 1.00 µM.
Regarding `CCCC(C)(N)CNC(=O)c1c(C)nc2c(OCc3ccccc3Cl)cc(C)cn12` (racemic) [Example 343, rac-N-(2-amino-2-methylpentyl)-8-[(2-chlorobenzyl)oxy]-2,6-dimethylimidazo[1,2-a]pyridine-3-carboxamide], the MEC worked out at 1.00 µM.
On to `Cc1cc(OCc2c(F)cccc2F)c2nc(C)c(C(=O)NCC3CN(Cc4ccccc4)CCO3)n2c1` (racemic) [Example 344, rac-N-[(4-benzylmorpholin-2-yl)methyl]-8-[(2,6-difluorobenzyl)oxy]-2,6-dimethylimidazo[1,2-a]pyridine-3-carboxamide], for which the MEC turned out to be 1.00 µM.
Regarding `Cc1cc(OCc2c(F)cccc2F)c2nc(C)c(C(=O)NCC3CNCCO3)n2c1` (racemic) [Example 345, rac-8-[(2,6-Difluorobenzyl)oxy]-2,6-dimethyl-N-(morpholin-2-ylmethyl)imidazo[1,2-a]pyridine-3-carboxamide], the MEC is 1.00 µM.
Consider `Cc1cc(OCc2c(F)cccc2F)c2nc(C)c(C(=O)NC34CCC3CNC4)n2c1` (racemic) [Example 346, rac-N-(3-azabicyclo[3.2.0]hept-1-yl)-8-[(2,6-difluorobenzyl)oxy]-2,6-dimethylimidazo[1,2-a]pyridine-3-carboxamide], for which the MEC was 1.00 µM.
The value for `Cc1cc(OCc2c(F)cccc2F)c2nc(C)c(C(=O)NC3CNCC3F)n2c1` (racemic) [Example 347, rac-8-[(2,6-Difluorobenzyl)oxy]-N-(4-fluoropyrrolidin-3-yl)-2,6-dimethylimidazo[1,2-a]pyridine-3-carboxamide] was 1.00 µM.

Values taken from patent US9624214B2, “Amino-substituted imidazo[1,2-a]pyridinecarboxamides and their use” (BAYER PHARMA AKTIENGESELLSCHAFT, priority 2012, dated 2017).
